In patent US7138361B2, “Herbicidal heterocycles” (E. I. du Pont de Nemours and Company, priority 2000, dated 2006):

Columns and labels:
Assay type in all cases: in vivo
[1] = tested on: cocklebur (Xanthium strumarium); assay: Test B postemergence; conditions: 13 to 15 days
How it was run: (§1)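 Greenhouse test: chemicals are formulated in a surfactant-containing non-phytotoxic solvent and applied either preemergence to planted seeds or postemergence to plants 2 to 18 cm tall. Response is rated visually versus controls after 13 to 15 days, 0 meaning no effect and 100 complete control.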

wild oat (Avena fatua) = assay: Test B postemergence; conditions: 13 to 15 days
How it was run: as §1

[2] = tested on: crabgrass (Digitaria sanguinalis); assay: Test B postemergence; conditions: 13 to 15 days
How it was run: as §1

[3] = tested on: lambsquarters (Chenopodium album); assay: Test B postemergence; conditions: 13 to 15 days
How it was run: as §1

[4] = tested on: cocklebur (Xanthium strumarium); assay: Test C preemergence; conditions: for Plant response rating, Cocklebur: scale 0 to 100, 0 no effect, 100 complete control; for Plant response rating (0 to 100), Cocklebur: preemergence, visual evaluation after 12 to 14 days
How it was run: (§2)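 Pre- and postemergence treatments used a non-phytotoxic solvent/surfactant formulation; post-treated plants measured 2 to 18 cm. Greenhouse hold 12–14 d; % control estimated visually relative to controls.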

[5] = tested on: bermudagrass (Cynodon dactylon); assay: Test C preemergence; conditions: for Plant response rating, Bermudagrass: scale 0 to 100, 0 no effect, 100 complete control; for Plant response rating (0 to 100 where 0 is no effect and 100 is complete control), Bermudagrass: preemergence, visual evaluation after 12 to 14 days
How it was run: as §2

[6] = tested on: common ragweed (Ambrosia elatior); assay: Test C preemergence; conditions: for Plant response rating, Ragweed, Common: scale 0 to 100, 0 no effect, 100 complete control
How it was run: as §2

kochia (Kochia scoparia) = assay: Test C preemergence; conditions: for Plant response rating, Kochia: scale 0 to 100, 0 no effect, 100 complete control; for Plant response rating (0 to 100), Kochia: preemergence, visual evaluation after 12 to 14 days
How it was run: as §2

Nightshade = assay: Test C preemergence; conditions: scale 0 to 100, 0 no effect, 100 complete control
[7] = tested on: johnsongrass (Sorghum halepense); assay: Test C preemergence; conditions: for Plant response rating, Johnsongrass: scale 0 to 100, 0 no effect, 100 complete control; for Plant response rating (0 to 100), Johnsongrass: preemergence, visual evaluation after 12 to 14 days
How it was run: as §2

[8] = tested on: giant foxtail (Setaria faberii); assay: Test C preemergence; conditions: for Plant response rating, Foxtail, Giant: scale 0 to 100, 0 no effect, 100 complete control; for Plant response rating (0 to 100), Foxtail, Giant: preemergence, visual evaluation after 12 to 14 days
How it was run: as §2

Sunflower [9] = assay: Test C preemergence; conditions: Rate 125 g/ha; scale 0 to 100, 0 no effect, 100 complete control
[10] = tested on: pigweed (Amaranthus retroflexus); assay: Test C preemergence; conditions: for Plant response rating, Pigweed: scale 0 to 100, 0 no effect, 100 complete control
How it was run: as §2

[11] = tested on: woolly cupgrass (Eriochloa villosa); assay: Test C preemergence; conditions: for Plant response rating, Cupgrass, Woolly: scale 0 to 100, 0 no effect, 100 complete control; for Plant response rating (0 to 100), Cupgrass, Woolly: preemergence, visual evaluation after 12 to 14 days
How it was run: as §2

[12] = tested on: Surinam grass (Brachiaria decumbens); assay: Test C preemergence; conditions: for Plant response rating, Surinam grass: scale 0 to 100, 0 no effect, 100 complete control; for Plant response rating (0 to 100), Surinam grass: preemergence, visual evaluation after 12 to 14 days
How it was run: as §2

[13] = tested on: velvetleaf (Abutilon theophrasti); assay: Test C preemergence; conditions: for Plant response rating, Velvetleaf: scale 0 to 100, 0 no effect, 100 complete control
How it was run: as §2

soybean (Glycine max) = assay: Test C preemergence; conditions: for Plant response rating, Soybean: scale 0 to 100, 0 no effect, 100 complete control
How it was run: as §2

[14] = tested on: lambsquarters (Chenopodium album); assay: Test C preemergence; conditions: for Plant response rating, Lambsquarters: scale 0 to 100, 0 no effect, 100 complete control
How it was run: as §2

corn (Zea mays) = assay: Test C preemergence; conditions: for Plant response rating, Corn: scale 0 to 100, 0 no effect, 100 complete control; for Plant response rating (0 to 100), Corn: preemergence, visual evaluation after 12 to 14 days
How it was run: as §2

Sunflower [15] = assay: Test C preemergence; conditions: Rate 500 g/ha, visual evaluation after 12 to 14 days
[16] = Rate 125 g/ha, scale 0 (no effect) to 100 (complete control)
[17] = Rate 500 g/ha, scale 0 to 100, 0 is no effect, 100 is complete control
[18] = preemergence, Rate 500 g/ha, visual evaluation after 12 to 14 days

Cc1ccc(N2CCC(n3ccc(C(C)(C)C)n3)C2=O)cc1OC(F)F (stereo not shown) [Compound 79]
Plant response rating, Cocklebur [1, 16]: 30 | Plant response rating, Cocklebur [1, 17]: 30 | Plant response rating, Wild Oat (wild oat (Avena fatua); [16]): 0 | Plant response rating, Wild Oat (wild oat (Avena fatua); [17]): 0 | Plant response rating, Crabgrass [2, 16]: 0 | Plant response rating, Crabgrass [2, 17]: 0 | Plant response rating, Lambsquarters [3, 16]: 0 | Plant response rating, Lambsquarters [3, 17]: 10 | Plant response rating, Cocklebur ([4]; Rate 62 g/ha): 0 | Plant response rating, Cocklebur ([4]; Rate 125 g/ha): 0 | Plant response rating (0 to 100), Cocklebur ([4]; Rate 250 g/ha): 0 | Plant response rating (0 to 100), Cocklebur ([4]; Rate 500 g/ha): 30 | Plant response rating, Bermudagrass ([5]; Rate 62 g/ha): 100 | Plant response rating, Bermudagrass ([5]; Rate 125 g/ha): 100 | Plant response rating (0 to 100 where 0 is no effect and 100 is complete control), Bermudagrass ([5]; Rate 250 g/ha): 100 | Plant response rating (0 to 100 where 0 is no effect and 100 is complete control), Bermudagrass ([5]; Rate 500 g/ha): 100 | Plant response rating, Ragweed, Common ([6]; Rate 125 g/ha): 100 | Plant response rating (0 to 100), Ragweed, Common [6, 18]: 100 | Plant response rating, Ragweed, Common ([6]; preemergence, Rate 250 g/ha): 100 | Plant response rating, Kochia (kochia (Kochia scoparia); Rate 62 g/ha): 100 | Plant response rating, Kochia (kochia (Kochia scoparia); Rate 125 g/ha): 100 | Plant response rating (0 to 100), Kochia (kochia (Kochia scoparia); Rate 250 g/ha): 100 | Plant response rating (0 to 100), Kochia (kochia (Kochia scoparia); Rate 500 g/ha): 100 | Plant response rating, Nightshade (Nightshade; Rate 62 g/ha): 20 | Plant response rating, Nightshade (Nightshade; Rate 125 g/ha): 50 | Plant response rating, Nightshade (Nightshade; Rate 250 g/ha): 50 | Plant response rating, Johnsongrass ([7]; Rate 62 g/ha): 0 | Plant response rating, Johnsongrass ([7]; Rate 125 g/ha): 0 | Plant response rating (0 to 100), Johnsongrass ([7]; Rate 250 g/ha): 0 | Plant response rating (0 to 100), Johnsongrass ([7]; Rate 500 g/ha): 0 | Plant response rating, Foxtail, Giant ([8]; Rate 62 g/ha): 0 | Plant response rating, Foxtail, Giant ([8]; Rate 125 g/ha): 0 | Plant response rating (0 to 100), Foxtail, Giant ([8]; Rate 250 g/ha): 0 | Plant response rating (0 to 100), Foxtail, Giant ([8]; Rate 500 g/ha): 0 | Plant response rating, Sunflower (Sunflower [9]): 0 | Plant response rating, Pigweed ([10]; Rate 125 g/ha): 10 | Plant response rating (0 to 100), Pigweed [10, 18]: 100 | Plant response rating, Pigweed ([10]; preemergence, Rate 250 g/ha): 20 | Plant response rating, Cupgrass, Woolly ([11]; Rate 62 g/ha): 90 | Plant response rating, Cupgrass, Woolly ([11]; Rate 125 g/ha): 90 | Plant response rating (0 to 100), Cupgrass, Woolly ([11]; Rate 250 g/ha): 100 | Plant response rating (0 to 100), Cupgrass, Woolly ([11]; Rate 500 g/ha): 100 | Plant response rating, Surinam grass ([12]; Rate 62 g/ha): 0 | Plant response rating, Surinam grass ([12]; Rate 125 g/ha): 20 | Plant response rating (0 to 100), Surinam grass ([12]; Rate 250 g/ha): 60 | Plant response rating (0 to 100), Surinam grass ([12]; Rate 500 g/ha): 100 | Plant response rating, Velvetleaf ([13]; Rate 125 g/ha): 0 | Plant response rating (0 to 100), Velvetleaf [13, 18]: 50 | Plant response rating, Velvetleaf ([13]; preemergence, Rate 250 g/ha): 20 | Plant response rating, Soybean (soybean (Glycine max); Rate 125 g/ha): 0 | Plant response rating (0 to 100), Soybean (soybean (Glycine max); [18]): 50 | Plant response rating, Soybean (soybean (Glycine max); preemergence, Rate 250 g/ha): 0 | Plant response rating, Lambsquarters ([14]; Rate 62 g/ha): 100 | Plant response rating, Lambsquarters ([14]; Rate 125 g/ha): 100 | Plant response rating (0 to 100), Lambsquarters [14, 18]: 100 | Plant response rating, Lambsquarters ([14]; preemergence, Rate 250 g/ha): 100 | Plant response rating, Corn (corn (Zea mays); Rate 62 g/ha): 0 | Plant response rating, Corn (corn (Zea mays); Rate 125 g/ha): 0 | Plant response rating (0 to 100), Corn (corn (Zea mays); Rate 250 g/ha): 0 | Plant response rating (0 to 100), Corn (corn (Zea mays); Rate 500 g/ha): 0 | Plant response rating (0 to 100), Sunflower (Sunflower [15]): 60
